Measured values published in ChEMBL document CHEMBL1127727, “Synthesis and structure-activity relationships of novel retinoid X receptor-selective retinoids” (J Med Chem, 1994).

What was measured:
[1] = molecular target: T1, Retinoic acid receptor gamma (Homo sapiens, UniProt P13631); experiment: Effective concentration against retinoid receptor isoform (RAR gamma) expressed in CV-1 cells; assay type: cell-based
T1 sequence (P13631 whole entry): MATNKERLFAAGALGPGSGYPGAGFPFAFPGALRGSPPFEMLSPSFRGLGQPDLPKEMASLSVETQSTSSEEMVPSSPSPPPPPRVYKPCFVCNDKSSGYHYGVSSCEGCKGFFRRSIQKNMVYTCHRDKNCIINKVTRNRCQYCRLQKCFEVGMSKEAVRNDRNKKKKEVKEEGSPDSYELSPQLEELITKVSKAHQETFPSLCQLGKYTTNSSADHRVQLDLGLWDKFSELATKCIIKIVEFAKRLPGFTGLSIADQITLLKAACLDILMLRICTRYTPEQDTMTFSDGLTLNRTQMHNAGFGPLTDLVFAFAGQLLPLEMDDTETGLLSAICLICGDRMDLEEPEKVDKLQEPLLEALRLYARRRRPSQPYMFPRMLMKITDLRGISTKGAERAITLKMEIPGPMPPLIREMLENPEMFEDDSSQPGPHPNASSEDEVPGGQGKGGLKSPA

[2] = molecular target: T2, Retinoic acid receptor alpha (Homo sapiens, UniProt P10276); experiment: Inhibition of [3H]ATRA binding to baculovirus expressed retinoid receptor RAR alpha
T2 sequence (P10276 whole entry): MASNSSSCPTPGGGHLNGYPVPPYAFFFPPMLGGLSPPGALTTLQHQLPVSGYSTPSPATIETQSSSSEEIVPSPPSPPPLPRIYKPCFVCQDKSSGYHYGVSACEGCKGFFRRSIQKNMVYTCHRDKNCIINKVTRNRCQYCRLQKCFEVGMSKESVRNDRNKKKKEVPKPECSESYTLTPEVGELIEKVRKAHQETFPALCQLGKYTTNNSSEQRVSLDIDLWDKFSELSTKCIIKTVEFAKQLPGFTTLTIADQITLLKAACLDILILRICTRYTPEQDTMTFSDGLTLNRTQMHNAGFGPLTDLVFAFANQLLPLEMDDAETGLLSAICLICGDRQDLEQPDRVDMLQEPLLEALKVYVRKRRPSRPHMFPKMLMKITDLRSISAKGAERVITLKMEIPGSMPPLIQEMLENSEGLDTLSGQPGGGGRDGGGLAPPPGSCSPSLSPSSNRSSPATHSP

[3] = molecular target: T3, Retinoic acid receptor RXR-beta (Mus musculus, UniProt P28704); experiment: Inhibition of [3H]9-cis-RA binding to baculovirus expressed retinoid receptor RXR beta
T3 sequence (P28704 whole entry): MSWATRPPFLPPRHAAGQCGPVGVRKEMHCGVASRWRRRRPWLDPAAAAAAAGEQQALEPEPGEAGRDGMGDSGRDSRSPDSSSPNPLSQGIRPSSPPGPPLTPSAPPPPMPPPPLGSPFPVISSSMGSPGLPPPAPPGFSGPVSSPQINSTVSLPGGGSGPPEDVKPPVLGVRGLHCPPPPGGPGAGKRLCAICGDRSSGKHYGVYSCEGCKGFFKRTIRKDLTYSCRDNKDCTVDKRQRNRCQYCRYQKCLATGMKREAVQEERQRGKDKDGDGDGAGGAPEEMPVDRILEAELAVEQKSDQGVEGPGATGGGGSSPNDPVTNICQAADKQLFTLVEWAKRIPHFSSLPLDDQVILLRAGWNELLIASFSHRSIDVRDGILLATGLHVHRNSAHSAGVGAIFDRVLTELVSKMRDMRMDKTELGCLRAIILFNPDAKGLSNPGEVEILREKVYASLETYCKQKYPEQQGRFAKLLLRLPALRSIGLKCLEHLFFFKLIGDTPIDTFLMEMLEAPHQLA

[4] = molecular target: T4, Retinoic acid receptor RXR-gamma (Mus musculus, UniProt P28705); experiment: Effective concentration against retinoid receptor isoform (RXR gamma) expressed in CV-1 cells; assay type: cell-based
T4 sequence (P28705 whole entry): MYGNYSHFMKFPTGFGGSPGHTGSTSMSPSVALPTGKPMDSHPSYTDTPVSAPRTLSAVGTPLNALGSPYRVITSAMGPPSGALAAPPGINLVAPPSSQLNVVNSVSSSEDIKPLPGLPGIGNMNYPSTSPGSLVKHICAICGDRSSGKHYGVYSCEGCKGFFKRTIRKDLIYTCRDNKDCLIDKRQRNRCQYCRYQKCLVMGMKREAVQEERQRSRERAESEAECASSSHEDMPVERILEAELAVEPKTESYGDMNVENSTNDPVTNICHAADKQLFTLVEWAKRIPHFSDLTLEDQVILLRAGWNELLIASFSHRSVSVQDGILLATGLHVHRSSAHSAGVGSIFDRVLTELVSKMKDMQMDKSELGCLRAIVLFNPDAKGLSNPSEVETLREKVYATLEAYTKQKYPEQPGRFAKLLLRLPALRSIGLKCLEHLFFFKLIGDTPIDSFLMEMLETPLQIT

[5] = molecular target: T4, Retinoic acid receptor RXR-gamma; experiment: Inhibition of [3H]9-cis-RA binding to baculovirus expressed retinoid receptor RXR gamma
[6] = molecular target: T1, Retinoic acid receptor gamma; experiment: Tested for binding affinity against [3H]-ATRA binding to retinoid receptor isoform (RAR gamma) expressed in baculovirus
[7] = molecular target: T5, Retinoic acid receptor RXR-alpha (Homo sapiens, UniProt P19793)
T5 sequence (P19793 whole entry): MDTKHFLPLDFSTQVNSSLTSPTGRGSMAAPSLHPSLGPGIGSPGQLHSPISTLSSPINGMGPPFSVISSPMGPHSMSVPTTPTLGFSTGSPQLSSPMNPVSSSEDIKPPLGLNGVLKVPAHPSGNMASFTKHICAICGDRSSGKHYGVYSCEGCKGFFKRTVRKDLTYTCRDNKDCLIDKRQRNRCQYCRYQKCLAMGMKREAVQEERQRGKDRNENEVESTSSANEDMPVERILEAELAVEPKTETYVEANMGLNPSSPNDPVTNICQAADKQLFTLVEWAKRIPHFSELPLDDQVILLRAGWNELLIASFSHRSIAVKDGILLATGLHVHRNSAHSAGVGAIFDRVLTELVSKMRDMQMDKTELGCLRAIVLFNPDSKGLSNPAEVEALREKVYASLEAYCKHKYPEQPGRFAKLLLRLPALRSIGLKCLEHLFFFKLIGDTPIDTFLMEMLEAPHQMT
Description: Effective concentration against retinoid receptor isoform (RXR alpha) expressed in CV-1 cells

[8] = molecular target: T3, Retinoic acid receptor RXR-beta; experiment: Effective concentration against retinoid receptor isoform (RXR beta) expressed in CV-1 cells; assay type: cell-based
[9] = molecular target: T6, Retinoic acid receptor beta (Homo sapiens, UniProt P10826); experiment: Inhibition of [3H]ATRA binding to baculovirus expressed retinoid receptor RAR beta
T6 sequence (P10826 whole entry): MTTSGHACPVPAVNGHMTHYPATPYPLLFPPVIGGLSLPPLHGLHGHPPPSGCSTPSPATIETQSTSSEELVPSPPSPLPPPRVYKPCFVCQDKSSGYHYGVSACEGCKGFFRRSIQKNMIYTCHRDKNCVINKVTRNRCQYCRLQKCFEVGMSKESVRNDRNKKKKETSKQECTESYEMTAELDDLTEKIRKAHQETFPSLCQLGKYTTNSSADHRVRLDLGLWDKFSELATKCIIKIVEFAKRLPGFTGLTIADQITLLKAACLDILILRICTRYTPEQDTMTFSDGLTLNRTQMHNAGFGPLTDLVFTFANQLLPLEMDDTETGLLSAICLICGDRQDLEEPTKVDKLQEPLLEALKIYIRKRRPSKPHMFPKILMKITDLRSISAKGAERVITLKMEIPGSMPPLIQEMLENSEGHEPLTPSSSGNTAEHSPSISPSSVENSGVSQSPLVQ

[10] = molecular target: T5, Retinoic acid receptor RXR-alpha; remark: listed apart in the source
Description: Inhibition of [3H]9-cis-RA binding to baculovirus expressed retinoid receptor RXR alpha

[11] = molecular target: T6, Retinoic acid receptor beta; experiment: Effective concentration against retinoid receptor isoform (RAR beta) expressed in CV-1 cells; assay type: cell-based
[12] = molecular target: T2, Retinoic acid receptor alpha; experiment: Effective concentration against retinoid receptor isoform (RAR alpha) expressed in CV-1 cells; assay type: cell-based
[13] = molecular target: T2, Retinoic acid receptor alpha; experiment: Inhibition of [3H]-ATRA binding to baculovirus expressed retinoid receptor RAR alpha

SMILES | EC50 [1] [nM] | Kd [2] [nM] | Kd [3] [nM] | EC50 [4] [nM] | Kd [5] [nM] | Kd [6] [nM] | EC50 [7] [nM] | EC50 [8] [nM] | Kd [9] [nM] | Kd [10] [nM] | EC50 [11] [nM] | EC50 [12] [nM] | Kd [13] [nM]
C=C(c1ccc(C(=O)O)cc1)c1cc2c(cc1OC)C(C)(C)CCC2(C)C | > 10000 | > 1000 | 191 | 230 | 113 | > 1000 | 83 | 198 | > 1000 | 96 | > 10000 | > 10000 | 
C=C(c1ccc(C(=O)O)cc1)c1cc2c(cc1Br)C(C)(C)CCC2(C)C | > 10000 |  | 34 | 43 | 35 | > 1000 | 51 | 59 | > 1000 | 28 | > 10000 | > 10000 | > 1000
C=C(c1ccc(C(=O)O)cc1)c1cc2c(cc1F)C(C)(C)CCC2(C)C | 397 |  | 108 | 383 | 94 | > 1000 | 197 | 189 | > 1000 | 69 | 337 | > 10000 | > 1000
